Patent US11219603B2, “Stable dosage form of etidronate-cytarabine conjugate, and use thereof” (MAXWELL BIOTECH GROUP LTD., priority 2015, dated 2022)

Key:
Assay type in all cases: physicochemical
[1] = Effect of MgCl2 on hydrolysis of MBC-11 in solution (formation of Ara-CMP at 25° C.); details: for Content of Ara-CMP (%): Water, 25° C.
Procedure: Studies were performed, where magnesium chloride was investigated as a stabilizer against hydrolytic decomposition. MgCl2 was added to solutions of MBC-11 conjugate in water, tartrate buffer (50 mmol/L, pH 5) and succinate buffer (50 mmol/L, pH 5). The following molar ratios of MgCl2 to MBC-11 were used: (1:2), (1:1), (2:1) and higher (˜12:1). […]

[2] = Thermal behaviour of solutions for lyophilization (DSC); details: for Thermal effect (event), in words: wrapped cell reads 'Tgt/endothermicity before alloy expansion'
Excerpt: The thermal properties of the solutions provided for lyophilization were investigated. Differential Scanning calorimetry (DSC) was used to identify the lowest possible transient temperature in the solution throughout the entire lyophilization process, including freezing and dehydration. For the solutions of most pharmaceutical products, this parameter is represented by the glass transition temperature or “Tgt”. All components and their amounts in the solution contribute to the final value of Tgt. This temperature is usually several degrees below the temperature at which the sintered material can crumble during the lyophilization process (collapse temperature, Tc). Without determining the collapse temperature by such methods as cryomicroscopy, the glass transition temperature can be used to select the primary drying temperature. Until the primary drying is completed, the initial drying temperature should be set in such a manner that there are no vials for which the glass transition temperature has been exceeded (or Tc, if known). Otherwise, the structure of the sintered material may get broken. On the one hand, the lyophilization temperature should be close to Tgt, so that the process proceeds efficiently, and on the other hand, it cannot exceed Tgt due to process requirements and qualitative product parameters. Thus, the values of collapse and glass transition temperature are important parameters for calculating safe upper temperature limits, which can be used for lyophilization.
Based on the proposed filling of the vials with the drug (100 mg of active ingredient per vial), potential solutions for filling were prepared. The excipients included sterile water for injection (SWFI), 50 mM succinate and tartrate buffers at pH 5, MgCl2, sulfobutylether β-cyclodextrin (SBEβCD), mannitol and dextran 40. In addition, for solutions containing mannitol, a study of the effect of the annealing stage (the lyophilization process stage when the samples are kept at a certain temperature below the freezing point for a certain period of time) on the improvement the crystallinity of the finished product was performed. […]

[3] = Compatibility with media for intravenous administration (Ara-CMP increase); details: 25 mg/mL MBC-11, MgCl2:MBC-11 2:1, dextran 5%, diluted to 1 mg/mL in D5W; within one day
[4] = Physical and hydrolytic stability of reconstituted lyophilizates in intravenous media; details: reconstituted lyophilizate, low dose in D5W, 25° C., 6 hours
Procedure: The lyophilized dosage form was evaluated for compatibility with three different media for intravenous administration within 24 hours: sterile water for injection (SWFI), D5W and 0.9% sodium chloride solution. […] The lyophilized dosage form was first dissolved in 5 mL SWFI to the MBC-11 trisodium salt concentration of 20 mg/mL, and then it was placed in glass vials and diluted with each medium for intravenous administration until the infusion doses under study were obtained. The solutions thus obtained were kept at 2-8° C. and 25° C. for 24 hours, and the evaluation of the samples in appearance, content and purity at the points t=0, 2, 4, 6 and 24 hours was performed.
At each control point, solutions for intravenous administration with a high dosage were evaluated in appearance, after which they were diluted to a nominal analytical concentration of 1 mg/mL with a solvent used in the analytical method for evaluating the substance purity. The samples thus obtained were used to determine the purity and content of the active pharmaceutical ingredient.

[5] = SWFI, MBC-11 25 mg/mL, MgCl2 43.25 mmol/L, Mannitol 25 mg/mL, Annealing at −20° C.
[6] = SWFI, MBC-11 25 mg/mL, MgCl2 43.25 mmol/L, Mannitol 25 mg/mL, Annealing at −24° C.
[7] = SWFI, MBC-11 25 mg/mL, MgCl2 43.25 mmol/L, pH 4.59
[8] = SWFI, MBC-11 50 mg/mL, MgCl2 86.5 mmol/L, pH 4.52
[9] = Succinate buffer, MBC-11 25 mg/mL, MgCl2 86.5 mmol/L, pH 4.52
[10] = Tartrate buffer, MBC-11 25 mg/mL, MgCl2 86.5 mmol/L, pH 4.48

## CC(O)(P(=O)(O)O)P(=O)(O)OP(=O)(O)OC[C@H]1O[C@@H](n2ccc(N)nc2=O)[C@@H](O)[C@@H]1O (stereo partly shown) [MBC-11]
[1]; MgCl2 1.73 mmol/L, MgCl2:MBC-11 1:1, t = 8 h
  Content of Ara-CMP (%): 3.2%
[1]; MgCl2 1.73 mmol/L, MgCl2:MBC-11 1:1, t = 24 h
  Content of Ara-CMP (%): 4.6%
[1]; MgCl2 3.5 mmol/L, MgCl2:MBC-11 2:1, t = 0 h
  Content of Ara-CMP (%): 2.7%
[1]; MgCl2 3.5 mmol/L, MgCl2:MBC-11 2:1, t = 4 h
  Content of Ara-CMP (%): 2.7%
[1]; MgCl2 3.5 mmol/L, MgCl2:MBC-11 2:1, t = 8 h
  Content of Ara-CMP (%): 2.9%
[1]; MgCl2 3.5 mmol/L, MgCl2:MBC-11 2:1, t = 24 h
  Content of Ara-CMP (%): 3.7%
[1]; MgCl2 20 mmol/L, MgCl2:MBC-11 ~12:1, t = 0 h
  Content of Ara-CMP (%): 2.6%
[1]; MgCl2 20 mmol/L, MgCl2:MBC-11 ~12:1, t = 4 h
  Content of Ara-CMP (%): 2.7%
[1]; MgCl2 20 mmol/L, MgCl2:MBC-11 ~12:1, t = 8 h
  Content of Ara-CMP (%): 2.9%
[1]; MgCl2 20 mmol/L, MgCl2:MBC-11 ~12:1, t = 24 h
  Content of Ara-CMP (%): 3.5%
[1]; previous observations (before addition of MgCl2), 8 hours at 25° C.
  increase in Ara-CMP content: ~2%
[2]; SWFI, MBC-11 25 mg/mL, MgCl2 43.25 mmol/L, Dextran-40 5%
  Thermal effect (event): Tgt: −21 °C (Tgt)
[2]; SWFI, MBC-11 25 mg/mL, MgCl2 43.25 mmol/L, Mannitol 25 mg/mL
  Thermal effect (event): possible crystallization: at −27 °C
[2]; [5]
  Thermal effect (event): crystallization after temperature processing: None
  Thermal effect (event): specific endothermicity: −22 °C
[2]; [6]
  Thermal effect (event): crystallization after annealing: None
  Thermal effect (event): weak endothermicity: −22 °C
[2]; [7]
  Thermal effect (event): Tgt: −22 °C (Tgt)
  Thermal effect (event): endotherm: −21 °C
[2]; SWFI, MBC-11 25 mg/mL, MgCl2 86.5 mmol/L, Dextran-40 5%
  Thermal effect (event): Tgt: −27 °C (Tgt)
[2]; SWFI, MBC-11 25 mg/mL, MgCl2 86.5 mmol/L, Mannitol 25 mg/mL
  Thermal effect (event), in words: Tgt/endothermicity
[2]; SWFI, MBC-11 25 mg/mL, MgCl2 86.5 mmol/L, pH 4.35
  Thermal effect (event): endothermicity: −26 °C
[2]; SWFI, MBC-11 50 mg/mL, 20% SBEβCD
  Thermal effect (event): Tgt: −26 °C (Tgt)
[2]; SWFI, MBC-11 50 mg/mL, MgCl2 86.5 mmol/L, Dextran-40 5%
  Thermal effect (event): Tgt: −24 °C (Tgt)
[2]; SWFI, MBC-11 50 mg/mL, MgCl2 86.5 mmol/L, Mannitol 25 mg/mL
  Thermal effect (event), in words: Tgt/endothermicity
[2]; [8]
  Thermal effect (event): Tgt: −34 °C (Tgt)
  Thermal effect (event): endothermicity: −21 °C
[2]; SWFI, MBC-11 50 mg/mL, MgCl2 173 mmol/L, Dextran-40 5%
  Thermal effect (event): Tgt: −36 °C (Tgt)
[2]; SWFI, MBC-11 50 mg/mL, MgCl2 173 mmol/L, Mannitol 25 mg/mL
  Thermal effect (event), in words: Tgt/endothermicity
[2]; SWFI, MBC-11 50 mg/mL, MgCl2 173 mmol/L, pH 4.23
  Thermal effect (event): endothermicity: −26 °C
[2]; SWFI, MBC-11 50 mg/mL, no excipient, pH 5.2
  Thermal effect (event): Tgt: −21 °C (Tgt)
[2]; SWFI, MBC-11 100 mg/mL, MgCl2 173 mmol/L
  Thermal effect (event): endothermicity: −22 °C
[2]; SWFI, MBC-11 100 mg/mL, MgCl2 173 mmol/L, Dextran-40 5%
  Thermal effect (event): Tgt: −29 °C (Tgt)
[2]; SWFI, MBC-11 100 mg/mL, MgCl2 350 mmol/L
  Thermal effect (event): endothermicity: −26 °C
[2]; SWFI, MBC-11 100 mg/mL, no excipient, pH 5.4
  Thermal effect (event): Tgt: −21 °C (Tgt)
[2]; Succinate buffer, MBC-11 25 mg/mL, MgCl2 86.5 mmol/L, Dextran-40 5%
  Thermal effect (event): Tgt: −30 °C (Tgt)
[2]; Succinate buffer, MBC-11 25 mg/mL, MgCl2 86.5 mmol/L, Mannitol 25 mg/mL
  Thermal effect (event), in words: Tgt/endothermicity
[2]; [9]
  Thermal effect (event): crystallization: −34 °C
  Thermal effect (event): endothermicity: −26 °C
[2]; Tartrate buffer, MBC-11 25 mg/mL, MgCl2 86.5 mmol/L, Dextran-40 5%
  Thermal effect (event): Tgt: −26 °C (Tgt)
[2]; Tartrate buffer, MBC-11 25 mg/mL, MgCl2 86.5 mmol/L, Mannitol 25 mg/mL
  Thermal effect (event): Tgt: −40 °C (Tgt)
[2]; [10]
  Thermal effect (event): Tgt: −40 °C (Tgt)
  Thermal effect (event): crystallization: −30 °C
  Thermal effect (event): endothermicity: −22 °C
[3]
  increase in Ara-CMP content: 1%
[4]
  increase in the Ara-CMP content: 0.5%
